Source: ChEMBL document CHEMBL3885861, “Open TG-GATES”

Organism: Rattus norvegicus
Test: Open TG-GATES - Regimen: Daily Repeat
Type: toxicity, organism-based, Sprague-Dawley
Design: regimen Daily Repeat, gender Male, age 6 weeks
Conditions: in vivo, po, route gavage; for ALP / ALT / AST / BUN / CRE / Ca / Cl / DBIL / GLC / IP / K / LDH / Na / PL / RALB / TBIL / TC / TG / TP / gamma-GTP / A/G: tissue Plasma; for APTT / Bas / Eos / Fbg / Hb / Ht / Lym / MCH / MCHC / MCV / Mono / Neu / PT / Plat / RBC / Ret / WBC: tissue Blood; for KIDNEY_L / KIDNEY_R / KIDNEY_TOTAL: tissue Kidney; for LIVER: tissue Liver
[1] = 3 mg/kg, […], dose level Low, time 14 day
[2] = 3 mg/kg, […], dose level Low, time 28 day
[3] = 10 mg/kg, 72 h, dose level Middle, time 3 day
[4] = 10 mg/kg, […], dose level Middle, time 7 day
[5] = 10 mg/kg, […], dose level Middle, time 14 day
[6] = 10 mg/kg, […], dose level Middle, time 28 day
[7] = 30 mg/kg, 72 h, dose level High, time 3 day
[8] = 30 mg/kg, […], dose level High, time 7 day
[9] = 30 mg/kg, […], dose level High, time 14 day

## C[C@H]1C(=O)O[C@@H]2CCN3CC=C(COC(=O)[C@](C)(O)[C@]1(C)O)[C@H]23 [MONOCROTALINE]
[1]
  ALP: 1435.6 IU/L
  ALT: 41.4 IU/L
  AST: 76.6 IU/L
  BUN: 16.4 mg/dL
  CRE: 0.2 mg/dL
  Ca: 11 mg/dL
  Cl: 106.4 meq/L
  DBIL: 0 mg/dL
  GLC: 185.4 mg/dL
  IP: 6.2 mg/dL
  K: 4 meq/L
  LDH: 269.8 IU/L
  Na: 142.4 meq/L
  PL: 161.6 mg/dL
  RALB: 3 g/dL
  TBIL: 0 mg/dL
  TC: 92.2 mg/dL
  TG: 97 mg/dL
  TP: 5.9 g/dL
  gamma-GTP: 2.2 IU/L
[2]
  A/G: 1.1
  ALP: 1124.2 IU/L
  ALT: 41.8 IU/L
  AST: 87.4 IU/L
  BUN: 19 mg/dL
  CRE: 0.2 mg/dL
  Ca: 10.7 mg/dL
  Cl: 108.4 meq/L
  DBIL: 0 mg/dL
  GLC: 182.2 mg/dL
  IP: 6 mg/dL
  K: 4.3 meq/L
  LDH: 290.2 IU/L
  Na: 143.2 meq/L
  PL: 158.8 mg/dL
  RALB: 3.2 g/dL
  TBIL: 0.034 mg/dL
  TC: 81.2 mg/dL
  TG: 128.2 mg/dL
  TP: 6.1 g/dL
  gamma-GTP: 1.2 IU/L
[3]
  TERMINAL_BW: 231.2 g
  APTT: 19.4 s
  Bas: 0%
  Eos: 0.8%
  Fbg: 324.6 mg/dL
  Hb: 13.8 g/dL
  Ht: 40.1%
  Lym: 78.2%
  MCH: 21.5 pg
  MCHC: 34.5%
  MCV: 62.2 fL
  Mono: 2.8%
  Neu: 17.6%
  PT: 15.9 s
  Plat: 126.9 x10_4/uL
  RBC: 646.6 x10_4/ul
  Ret: 6%
  WBC: 73.2 x10_2/uL
  KIDNEY_L: 1 g
  KIDNEY_R: 1 g
  KIDNEY_TOTAL: 2 g
  LIVER: 10.7 g
  A/G: 1.3
  ALP: 1897.2 IU/L
  ALT: 40.8 IU/L
  AST: 73.6 IU/L
  BUN: 16.2 mg/dL
  CRE: 0.2 mg/dL
  Ca: 10.9 mg/dL
  Cl: 106.4 meq/L
  DBIL: 0.002 mg/dL
  GLC: 184.4 mg/dL
  IP: 7.2 mg/dL
  K: 4.6 meq/L
  LDH: 283 IU/L
  Na: 142 meq/L
  PL: 167.2 mg/dL
  RALB: 3.1 g/dL
  TBIL: 0.01 mg/dL
  TC: 90.4 mg/dL
  TG: 113.6 mg/dL
  TP: 5.5 g/dL
  gamma-GTP: 1 IU/L
[4]
  TERMINAL_BW: 249.4 g
  APTT: 21.5 s
  Bas: 0%
  Eos: 1%
  Fbg: 391.6 mg/dL
  Hb: 13.9 g/dL
  Ht: 39.4%
  Lym: 78.8%
  MCH: 20.7 pg
  MCHC: 35.1%
  MCV: 58.8 fL
  Mono: 4.2%
  Neu: 14.8%
  PT: 16.4 s
  Plat: 134.7 x10_4/uL
  RBC: 670.6 x10_4/ul
  Ret: 4.5%
  WBC: 135.7 x10_2/uL
  KIDNEY_L: 1.1 g
  KIDNEY_R: 1.1 g
  KIDNEY_TOTAL: 2.2 g
  LIVER: 11.6 g
  A/G: 1.1
  ALP: 1684.4 IU/L
  ALT: 46.6 IU/L
  AST: 87.8 IU/L
  BUN: 15.4 mg/dL
  CRE: 0.1 mg/dL
  Ca: 11 mg/dL
  Cl: 107.4 meq/L
  DBIL: 0.002 mg/dL
  GLC: 181.2 mg/dL
  IP: 6.6 mg/dL
  K: 4.3 meq/L
  LDH: 236 IU/L
  Na: 142 meq/L
  PL: 149 mg/dL
  RALB: 3 g/dL
  TBIL: 0.006 mg/dL
  TC: 82 mg/dL
  TG: 111 mg/dL
  TP: 5.7 g/dL
  gamma-GTP: 1.8 IU/L
[5]
  TERMINAL_BW: 274.8 g
  APTT: 21.2 s
  Bas: 0%
  Eos: 0.2%
  Fbg: 480 mg/dL
  Hb: 14.4 g/dL
  Ht: 41.1%
  Lym: 84.2%
  MCH: 20.5 pg
  MCHC: 35.2%
  MCV: 58.2 fL
  Mono: 4.8%
  Neu: 9.6%
  PT: 16.4 s
  Plat: 136.8 x10_4/uL
  RBC: 705.4 x10_4/ul
  Ret: 2.9%
  WBC: 250.8 x10_2/uL
  KIDNEY_L: 1.1 g
  KIDNEY_R: 1.2 g
  KIDNEY_TOTAL: 2.3 g
  LIVER: 13.3 g
  A/G: 0.8
  ALP: 2092 IU/L
  ALT: 88.8 IU/L
  AST: 174.4 IU/L
  BUN: 17.2 mg/dL
  CRE: 0.3 mg/dL
  Ca: 11.2 mg/dL
  Cl: 106.6 meq/L
  DBIL: 0.006 mg/dL
  GLC: 171 mg/dL
  IP: 5.9 mg/dL
  K: 4.8 meq/L
  LDH: 454.8 IU/L
  Na: 141 meq/L
  PL: 139 mg/dL
  RALB: 2.6 g/dL
  TBIL: 0.008 mg/dL
  TC: 71.6 mg/dL
  TG: 103.2 mg/dL
  TP: 5.8 g/dL
  gamma-GTP: 2.4 IU/L
[6]
  TERMINAL_BW: 321 g
  APTT: 26.9 s
  Bas: 0%
  Eos: 1%
  Fbg: 293.8 mg/dL
  Hb: 15.3 g/dL
  Ht: 43.1%
  Lym: 76.4%
  MCH: 18.8 pg
  MCHC: 35.6%
  MCV: 52.7 fL
  Mono: 4.6%
  Neu: 17%
  PT: 16.1 s
  Plat: 84.1 x10_4/uL
  RBC: 818 x10_4/ul
  Ret: 4.5%
  WBC: 308 x10_2/uL
  KIDNEY_L: 1.3 g
  KIDNEY_R: 1.3 g
  KIDNEY_TOTAL: 2.6 g
  LIVER: 15 g
  A/G: 0.9
  ALP: 1353.2 IU/L
  ALT: 82.8 IU/L
  AST: 155 IU/L
  BUN: 17.4 mg/dL
  CRE: 0.2 mg/dL
  Ca: 11 mg/dL
  Cl: 107.8 meq/L
  DBIL: 0.078 mg/dL
  GLC: 167.6 mg/dL
  IP: 6 mg/dL
  K: 4.5 meq/L
  LDH: 382.8 IU/L
  Na: 141.4 meq/L
  PL: 140 mg/dL
  RALB: 2.9 g/dL
  TBIL: 0.1 mg/dL
  TC: 79.6 mg/dL
  TG: 47.2 mg/dL
  TP: 6 g/dL
  gamma-GTP: 1.6 IU/L
[7]
  TERMINAL_BW: 232.9 g
  APTT: 17.3 s
  Bas: 0%
  Eos: 0.8%
  Fbg: 350.2 mg/dL
  Hb: 13.8 g/dL
  Ht: 39.9%
  Lym: 73.6%
  MCH: 21.4 pg
  MCHC: 34.5%
  MCV: 62.1 fL
  Mono: 4.4%
  Neu: 19.8%
  PT: 16.2 s
  Plat: 124.3 x10_4/uL
  RBC: 643.2 x10_4/ul
  Ret: 4.8%
  WBC: 80.8 x10_2/uL
  KIDNEY_L: 1 g
  KIDNEY_R: 1 g
  KIDNEY_TOTAL: 2.1 g
  LIVER: 12.5 g
  A/G: 1.3
  ALP: 1831.6 IU/L
  ALT: 47.2 IU/L
  AST: 112.4 IU/L
  BUN: 13.6 mg/dL
  CRE: 0.1 mg/dL
  Ca: 11.1 mg/dL
  Cl: 106.4 meq/L
  DBIL: 0.01 mg/dL
  GLC: 180.2 mg/dL
  IP: 7 mg/dL
  K: 4.5 meq/L
  LDH: 398 IU/L
  Na: 141.2 meq/L
  PL: 161.4 mg/dL
  RALB: 3.2 g/dL
  TBIL: 0.028 mg/dL
  TC: 88.4 mg/dL
  TG: 100 mg/dL
  TP: 5.7 g/dL
  gamma-GTP: 1.2 IU/L
[8]
  TERMINAL_BW: 230.5 g
  APTT: 24.3 s
  Bas: 0%
  Eos: 0.4%
  Fbg: 451.4 mg/dL
  Hb: 14.1 g/dL
  Ht: 40.7%
  Lym: 71.6%
  MCH: 20.2 pg
  MCHC: 34.6%
  MCV: 58.3 fL
  Mono: 4.8%
  Neu: 18.6%
  PT: 17.5 s
  Plat: 44 x10_4/uL
  RBC: 697.8 x10_4/ul
  Ret: 2.9%
  WBC: 122 x10_2/uL
  KIDNEY_L: 1.1 g
  KIDNEY_R: 1.1 g
  KIDNEY_TOTAL: 2.2 g
  LIVER: 11.3 g
  A/G: 1
  ALP: 1889.2 IU/L
  ALT: 273.2 IU/L
  AST: 504.2 IU/L
  BUN: 13 mg/dL
  CRE: 0.2 mg/dL
  Ca: 10.8 mg/dL
  Cl: 106 meq/L
  DBIL: 0.2 mg/dL
  GLC: 156 mg/dL
  IP: 6.9 mg/dL
  K: 4.4 meq/L
  LDH: 749.6 IU/L
  Na: 141 meq/L
  PL: 139.8 mg/dL
  RALB: 2.6 g/dL
  TBIL: 0.3 mg/dL
  TC: 86.4 mg/dL
  TG: 38.8 mg/dL
  TP: 5.3 g/dL
  gamma-GTP: 2.2 IU/L
[9]
  Mono: 7%
  BUN: 13.5 mg/dL
  CRE: 0.2 mg/dL
  TP: 4.9 g/dL
